Data as given in patent US7138361B2, “Herbicidal heterocycles” (E. I. du Pont de Nemours and Company, priority 2000, dated 2006).

Tests used:
Type in all cases: in vivo
[1] = system: crabgrass (Digitaria sanguinalis); assay: Test B preemergence; conditions: scale 0 to 100, 0 no effect, 100 complete control
In short: (§1)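 Seeds were planted and sprayed preemergence with test chemical in a non-phytotoxic solvent mixture containing surfactant; postemergence plants (2 to 18 cm, 1- to 4-leaf stage) received the same formulation. Greenhouse hold 13 to 15 days, then visual rating versus untreated controls on a 0–100 scale (0 no effect, 100 complete control).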

[2] = system: corn (Zea mays); assay: Test B preemergence; conditions: scale 0 to 100, 0 no effect, 100 complete control
In short: as §1

[3] = system: barnyardgrass (Echinochloa crus-galli); assay: Test B preemergence; conditions: scale 0 to 100, 0 no effect, 100 complete control
In short: as §1

[4] = system: velvetleaf (Abutilon theophrasti); assay: Test B preemergence; conditions: scale 0 to 100, 0 no effect, 100 complete control
In short: as §1

[5] = system: morning glory (Ipomoea hederacea); assay: Test B preemergence; conditions: scale 0 to 100, 0 no effect, 100 complete control
In short: as §1

[6] = system: giant foxtail (Setaria faberii); assay: Test B preemergence; conditions: scale 0 to 100, 0 no effect, 100 complete control
In short: as §1

[7] = system: rice (Oryza saliva); assay: Test B preemergence; conditions: scale 0 to 100, 0 no effect, 100 complete control
In short: as §1

[8] = system: Surinam grass (Brachiaria decumbens); assay: Test B preemergence; conditions: scale 0 to 100, 0 no effect, 100 complete control
In short: as §1

[9] = system: lambsquarters (Chenopodium album); assay: Test B preemergence; conditions: scale 0 to 100, 0 no effect, 100 complete control
In short: as §1

[10] = system: pigweed (Amaranthus retroflexus); assay: Test B preemergence; conditions: scale 0 to 100, 0 no effect, 100 complete control
In short: as §1

[11] = system: cocklebur (Xanthium strumarium); assay: Test B preemergence; conditions: scale 0 to 100, 0 no effect, 100 complete control
In short: as §1

[12] = system: wild oat (Avena fatua); assay: Test B postemergence; conditions: 13 to 15 days
In short: as §1

[13] = system: crabgrass (Digitaria sanguinalis); assay: Test B postemergence; conditions: 13 to 15 days
In short: as §1

[14] = system: wheat (Triticum aestivum); assay: Test B postemergence; conditions: 13 to 15 days
In short: as §1

[15] = system: corn (Zea mays); assay: Test B postemergence; conditions: 13 to 15 days
In short: as §1

[16] = system: barnyardgrass (Echinochloa crus-galli); assay: Test B postemergence; conditions: 13 to 15 days
In short: as §1

[17] = system: velvetleaf (Abutilon theophrasti); assay: Test B postemergence; conditions: 13 to 15 days
In short: as §1

[18] = system: morning glory (Ipomoea hederacea); assay: Test B postemergence; conditions: 13 to 15 days
In short: as §1

[19] = system: giant foxtail (Setaria faberii); assay: Test B postemergence; conditions: 13 to 15 days
In short: as §1

[20] = system: Surinam grass (Brachiaria decumbens); assay: Test B postemergence; conditions: 13 to 15 days
In short: as §1

[21] = system: blackgrass (Alopecurus myosuroides); assay: Test B postemergence; conditions: 13 to 15 days
In short: as §1

[22] = system: lambsquarters (Chenopodium album); assay: Test B postemergence; conditions: 13 to 15 days
In short: as §1

[23] = system: cocklebur (Xanthium strumarium); assay: Test B postemergence; conditions: 13 to 15 days
In short: as §1

[24] = Rate 125 g/ha, scale 0 (no effect) to 100 (complete control)
[25] = Rate 500 g/ha, scale 0 to 100, 0 is no effect, 100 is complete control

CCC(C)c1nn(C2CCN(c3cccc(C(F)(F)F)c3)C2=O)cc1Cl (centres unmarked) [Compound 13]
60: Plant response rating, Crabgrass [13, 24] | Plant response rating, Crabgrass [13, 25]
0: Plant response rating, Crabgrass ([1]; Preemergence, Rate 500 g/ha) | Plant response rating, Crabgrass ([1]; preemergence, Rate 125 g/ha) | Plant response rating, Corn ([2]; Preemergence, Rate 500 g/ha) | Plant response rating, Corn ([2]; preemergence, Rate 125 g/ha) | Plant response rating, Barnyardgrass ([3]; Preemergence, Rate 500 g/ha) | Plant response rating, Barnyardgrass ([3]; preemergence, Rate 125 g/ha) | Plant response rating, Velvetleaf ([4]; Preemergence, Rate 500 g/ha) | Plant response rating, Velvetleaf ([4]; preemergence, Rate 125 g/ha) | Plant response rating, Morningglory ([5]; Preemergence, Rate 500 g/ha) | Plant response rating, Morningglory ([5]; preemergence, Rate 125 g/ha) | Plant response rating, Foxtail, Giant ([6]; Preemergence, Rate 500 g/ha) | Plant response rating, Foxtail, Giant ([6]; preemergence, Rate 125 g/ha) | Plant response rating, Rice ([7]; Preemergence, Rate 500 g/ha) | Plant response rating, Rice ([7]; preemergence, Rate 125 g/ha) | Plant response rating, Surinam grass ([8]; Preemergence, Rate 500 g/ha) | Plant response rating, Surinam grass ([8]; preemergence, Rate 125 g/ha) | Plant response rating, Lambsquarters ([9]; Preemergence, Rate 500 g/ha) | Plant response rating, Lambsquarters ([9]; preemergence, Rate 125 g/ha) | Plant response rating, Pigweed ([10]; Preemergence, Rate 500 g/ha) | Plant response rating, Pigweed ([10]; preemergence, Rate 125 g/ha) | Plant response rating, Cocklebur ([11]; Preemergence, Rate 500 g/ha) | Plant response rating, Cocklebur ([11]; preemergence, Rate 125 g/ha) | Plant response rating, Wheat [14, 24] | Plant response rating, Wheat [14, 25] | Plant response rating, Corn [15, 24] | Plant response rating, Corn [15, 25] | Plant response rating, Barnyardgrass [16, 24] | Plant response rating, Barnyardgrass [16, 25] | Plant response rating, Velvetleaf [17, 24] | Plant response rating, Velvetleaf [17, 25] | Plant response rating, Morningglory [18, 24] | Plant response rating, Foxtail, Giant [19, 24] | Plant response rating, Foxtail, Giant [19, 25] | Plant response rating, Surinam grass [20, 24] | Plant response rating, Surinam grass [20, 25] | Plant response rating, Blackgrass [21, 24] | Plant response rating, Blackgrass [21, 25] | Plant response rating, Lambsquarters [22, 24] | Plant response rating, Lambsquarters [22, 25] | Plant response rating, Cocklebur [23, 24] | Plant response rating, Cocklebur [23, 25]
20: Plant response rating, Wild Oat [12, 24] | Plant response rating, Wild Oat [12, 25]
70: Plant response rating, Morningglory [18, 25]

CC(C)(C)c1nn(C2CCN(c3cccc(C(F)(F)F)c3)C2=O)cc1Cl (centres unmarked) [Compound 14]
0: Plant response rating, Crabgrass ([1]; Preemergence, Rate 500 g/ha) | Plant response rating, Crabgrass ([1]; preemergence, Rate 125 g/ha) | Plant response rating, Corn ([2]; Preemergence, Rate 500 g/ha) | Plant response rating, Corn ([2]; preemergence, Rate 125 g/ha) | Plant response rating, Barnyardgrass ([3]; Preemergence, Rate 500 g/ha) | Plant response rating, Barnyardgrass ([3]; preemergence, Rate 125 g/ha) | Plant response rating, Velvetleaf ([4]; Preemergence, Rate 500 g/ha) | Plant response rating, Velvetleaf ([4]; preemergence, Rate 125 g/ha) | Plant response rating, Morningglory ([5]; Preemergence, Rate 500 g/ha) | Plant response rating, Morningglory ([5]; preemergence, Rate 125 g/ha) | Plant response rating, Foxtail, Giant ([6]; Preemergence, Rate 500 g/ha) | Plant response rating, Foxtail, Giant ([6]; preemergence, Rate 125 g/ha) | Plant response rating, Rice ([7]; Preemergence, Rate 500 g/ha) | Plant response rating, Rice ([7]; preemergence, Rate 125 g/ha) | Plant response rating, Surinam grass ([8]; Preemergence, Rate 500 g/ha) | Plant response rating, Surinam grass ([8]; preemergence, Rate 125 g/ha) | Plant response rating, Lambsquarters ([9]; Preemergence, Rate 500 g/ha) | Plant response rating, Lambsquarters ([9]; preemergence, Rate 125 g/ha) | Plant response rating, Pigweed ([10]; Preemergence, Rate 500 g/ha) | Plant response rating, Pigweed ([10]; preemergence, Rate 125 g/ha) | Plant response rating, Cocklebur ([11]; Preemergence, Rate 500 g/ha) | Plant response rating, Cocklebur ([11]; preemergence, Rate 125 g/ha) | Plant response rating, Wild Oat [12, 24] | Plant response rating, Wild Oat [12, 25] | Plant response rating, Wheat [14, 24] | Plant response rating, Wheat [14, 25] | Plant response rating, Corn [15, 24] | Plant response rating, Corn [15, 25] | Plant response rating, Barnyardgrass [16, 24] | Plant response rating, Barnyardgrass [16, 25] | Plant response rating, Velvetleaf [17, 24] | Plant response rating, Velvetleaf [17, 25] | Plant response rating, Surinam grass [20, 24] | Plant response rating, Surinam grass [20, 25] | Plant response rating, Blackgrass [21, 24] | Plant response rating, Blackgrass [21, 25] | Plant response rating, Lambsquarters [22, 24] | Plant response rating, Lambsquarters [22, 25] | Plant response rating, Cocklebur [23, 24] | Plant response rating, Cocklebur [23, 25]
50: Plant response rating, Crabgrass [13, 24]
20: Plant response rating, Foxtail, Giant [19, 24]
80: Plant response rating, Morningglory [18, 25]
70: Plant response rating, Crabgrass [13, 25]
30: Plant response rating, Morningglory [18, 24] | Plant response rating, Foxtail, Giant [19, 25]
